Entries after “also recorded” stand apart in the source; their conditions may differ.
What was measured:
[1] = test system: Single Prolonged Stress (SPS) model of PTSD; assay: Elevated plus maze (EPM) one week after SPS stressors, early intervention with intranasal peptide; type: in vivo, rat
Description: (§1) After 7 days, the animals were tested on the elevated plus maze (EPM) for 5 min for various features of anxiety and locomotion and 5 days later for depressive/despair symptoms on the Forced Swim Tet (FST).
Based on the performance on the EPM the anxiety index was calculated for each rat. […] (FIG. 2B)
(§2) After a two week accommodation period rats were exposed to SPS stressors. […] Control unstressed rats were handled briefly and weighed on the same day. They were left undisturbed for a week and then tested for anxiety on Elevated Plus Maze (EPM) together with unstressed control rats. Five days later all the animals were tested for depresssive/dispair behavior by the Forced Swim Test (FST).
Based on the performance on the EPM the anxiety index was calculated for each rat. The anxiety index=1−[(time spent in open arm/total time on the maze)/2+(number of entries to the open arms/total exploration on the maze)/2] and is shown in FIG. 2. […] Each point represents the values for an individual animal.

[2] = test system: Single Prolonged Stress (SPS) model of PTSD; assay: Forced Swim Test (FST) 12 days after SPS stressors, early intervention with intranasal peptide; type: in vivo; conditions: intranasal 150 μg/rat immediately after SPS, vs SPS/V
Description: as §1
The immobility time on the FST, which reflects depressive-lie behavior, despair or altered coping style was determined.
as §2

[3] = test system: Single Prolonged Stress (SPS) model of PTSD; assay: Elevated plus maze (EPM) two weeks after SPS stressors, early intervention with intranasal peptide; type: in vivo; conditions: intranasal NPY 200 μg or D-H 150 μg per rat immediately after SPS
Description: (§3) FIG. 6 depicts a diagram of the experimental procedure (FIGS. 7-8). […] After two weeks the animals were tested on the elevated plus maze (EPM) for 5 min and 7 days later for social interaction (SI).
(§4) The experimental design was as depicted in FIG. 6. […] After two weeks they were tested on the elevated plus maze (EPM) for 5 min and 7 days later for social interaction (SI).

[4] = test system: Single Prolonged Stress (SPS) model of PTSD; assay: Social interaction test with juvenile rat, three weeks after SPS stressors; type: in vivo; conditions: intranasal NPY 200 μg or D-H 150 μg per rat immediately after SPS; SI 7 days after the EPM
Description: as §3, §4

[5] = test system: Single Prolonged Stress (SPS) model of PTSD; assay: EPM after intranasal treatment given 2 weeks after SPS (reversal of manifested symptoms); type: in vivo; conditions: intranasal 300 μg/rat given 2 weeks after SPS; EPM four days later; vs SPS/V
Description: FIG. 9A. Scheme of the experiment; FIG. 9B. Duration in the closed arms, an indication of anxiety; FIG. 9C. Anxiety index. *p<0.05, ***p<0.001.

[6] = test system: SPS elicited development of depressive symptoms; conditions: intranasal infusion after traumatic stress; cited from earlier work
[7] = intranasal 150 μg/rat immediately after SPS, one week after SPS
[8] = intranasal 150 μg/rat immediately after SPS, one week after SPS, listed as [D-^26His]NPY

Substance	distance travelled on the EPM (locomotion) [1, 7]	duration of head dips on the EPM [1, 7]	frequency of head dips on the EPM [1, 7]	duration of head dips on the EPM [1, 8]	frequency of head dips on the EPM [1, 8]	immobility time in the Forced Swim Test ([2]; listed as D-H)	immobility time in the Forced Swim Test ([2]; listed as DH)	entries and duration in the open arms of the EPM [3]	interaction time on the social interaction test [4]	number of approaches on the social interaction test [4]	duration in the closed arms of the EPM [5]	SPS elicited anxiety (anxiety index on the EPM, FIG. 2B) ([1]; intranasal, at a concentration which prevents SPS elicited depressive symptoms, seven days after SPS)	development of depressive-like symptoms after traumatic stress [6]
[D^26-His]NPY [[D^26His]NPY]	did not reduce the distance traveled	prevent the SPS triggered reduction; also recorded: more effective than NPY	prevent the SPS triggered reduction; also recorded: more effective than NPY	recovered	recovered	superior to NPY	reduced; also recorded: significantly more effective than NPY	as effective as NPY	prevented	prevented	less time in the closed arms	–	–
[Leu^31Pro^34]NPY [reference compound]	–	–	–	–	–	–	–	–	–	–	–	did not reduce the SPS elicited anxiety; also recorded: ineffective	prevented development of depressive-like symptoms

From patent US12551533B2, “Intranasal neuropeptides for use in stress-related impairments” (New York Medical College, priority 2019, dated 2026)
